Data reported in publication PMC4574636 (Biochemical pharmacology, 2015).
Positions count from the first letter of the chain named.

Columns and labels:
[1] = target: T1, AOX1 (Homo sapiens, UniProt Q06278); details: human liver cytosol
T1 sequence (Q06278 1-1338): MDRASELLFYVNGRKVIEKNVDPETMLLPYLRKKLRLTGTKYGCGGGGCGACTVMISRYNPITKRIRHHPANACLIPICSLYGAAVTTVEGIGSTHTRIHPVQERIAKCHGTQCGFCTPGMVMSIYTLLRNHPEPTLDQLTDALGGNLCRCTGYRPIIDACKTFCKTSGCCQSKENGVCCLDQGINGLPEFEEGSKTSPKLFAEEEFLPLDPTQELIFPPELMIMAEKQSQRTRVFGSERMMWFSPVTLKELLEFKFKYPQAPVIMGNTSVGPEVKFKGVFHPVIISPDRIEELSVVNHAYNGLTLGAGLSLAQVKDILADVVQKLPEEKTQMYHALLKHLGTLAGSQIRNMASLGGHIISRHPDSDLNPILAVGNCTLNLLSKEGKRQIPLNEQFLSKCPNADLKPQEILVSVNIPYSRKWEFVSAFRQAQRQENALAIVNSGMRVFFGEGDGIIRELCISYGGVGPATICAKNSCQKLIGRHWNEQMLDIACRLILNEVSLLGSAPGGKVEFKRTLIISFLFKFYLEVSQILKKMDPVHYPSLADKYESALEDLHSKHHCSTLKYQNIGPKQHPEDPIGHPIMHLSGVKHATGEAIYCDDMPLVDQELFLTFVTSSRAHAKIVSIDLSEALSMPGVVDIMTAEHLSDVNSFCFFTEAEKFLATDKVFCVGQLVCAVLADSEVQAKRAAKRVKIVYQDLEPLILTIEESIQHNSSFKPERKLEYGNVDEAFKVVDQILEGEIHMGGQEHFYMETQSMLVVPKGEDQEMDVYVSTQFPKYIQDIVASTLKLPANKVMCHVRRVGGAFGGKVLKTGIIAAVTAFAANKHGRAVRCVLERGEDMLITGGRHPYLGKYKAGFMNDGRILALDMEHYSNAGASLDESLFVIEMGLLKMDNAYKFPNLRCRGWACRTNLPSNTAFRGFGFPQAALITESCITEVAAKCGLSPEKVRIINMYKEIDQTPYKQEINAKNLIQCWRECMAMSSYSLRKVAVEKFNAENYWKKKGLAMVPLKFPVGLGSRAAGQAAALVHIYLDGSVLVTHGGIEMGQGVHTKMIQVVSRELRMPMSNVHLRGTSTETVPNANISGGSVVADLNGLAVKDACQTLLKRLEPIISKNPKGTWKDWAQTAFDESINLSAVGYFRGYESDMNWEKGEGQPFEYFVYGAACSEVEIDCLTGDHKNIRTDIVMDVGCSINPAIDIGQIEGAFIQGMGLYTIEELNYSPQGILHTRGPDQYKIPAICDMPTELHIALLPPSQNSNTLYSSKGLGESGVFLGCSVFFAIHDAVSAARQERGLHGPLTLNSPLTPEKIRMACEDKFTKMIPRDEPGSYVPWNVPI

[2] = target: T2, human AOX1 V1016R (Homo sapiens, UniProt Q06278, V1016R); assay: Methotrexate hydroxylation by purified recombinant human AOX1 V1016R mutant; type: in vitro ADME; details: V1016R single mutant
T2 sequence (Q06278 1-1338 V1016R): T1 sequence (Q06278 1-1338) with V1016R

## CN(Cc1cnc2nc(N)nc(N)c2n1)c1ccc(C(=O)N[C@@H](CCC(=O)O)C(=O)O)cc1 [Methotrexate, 4-amino-N^1^0-methylpteroglutamic acid]
[1]; calculated from Vmax and AOX1 level (figure 1A)
  kcat (Vmax/[AOX1]): 0.04 s⁻¹
[1]; from specific activity and Km
  In vitro CLint AOX1: 0.9 min^− 1mM^−1
[2]; Figure 5
  Km / affinity vs wild type: decreased affinity for methotrexate compared to wild type AOX1
[2]; p < 0.01, Figure 5
  Methotrexate hydroxylation activity vs wild type: significant decrease
